Experiment: xn = mol fraction of the nth substance listed
Conditions: 298.15 K, 101 kPa

Row | speed of sound (x2 = 0.1874) [m/s] | speed of sound (x2 = 0.4815) [m/s] | speed of sound (x2 = 0.6209) [m/s] | speed of sound (x2 = 0.7217) [m/s] | speed of sound (x2 = 0.8982) [m/s] | speed of sound (x2 = 0.9373) [m/s] | speed of sound (x2 = 0.2213) [m/s] | speed of sound (x2 = 0.308) [m/s] | speed of sound (x2 = 0.3852) [m/s] | speed of sound (x2 = 0.5017) [m/s] | speed of sound (x2 = 0.5976) [m/s] | speed of sound (x2 = 0.6987) [m/s] | speed of sound (x2 = 0.8012) [m/s] | speed of sound (x2 = 0.8967) [m/s] | speed of sound (x2 = 0.9504) [m/s] | Structure (SMILES)
1 | 1744.8 | 1598.2 | 1515 | 1443 | 1279.1 | 1232.5 |  |  |  |  |  |  |  |  |  | CCCC[n+]1ccn(C)c1.[Cl-] + CCO
2 |  |  |  |  |  |  | 1838.3 | 1828.2 | 1831.3 | 1845 | 1859.6 | 1872.8 | 1881.5 | 1853.7 | 1754.7 | CCCC[n+]1ccn(C)c1.[Cl-] + O
